Where no end group is shown, it is not given here.
Legend:
[1] = test system: 단핵성 근육모세포 (수반 세포); test: Biological activity: induction of mononucleated myoblast replication (Alamar Blue); assay type: cell-based; set-up: key to biological activity score (scale 0 to 3): 0: 6시간에서 측정가능한 세포 수 증가 없음; 1: 4시간에서 유의한 세포 수 증가; 2시간에서 유의한 세포 수 증가; 3: 1시간에서 유의한 세포 수 증가; settings: cell number by Alamar Blue
[2] = test system: C2C12 근육 세포; test: C2C12 cell proliferation assay (Alamar Blue); assay type: cell-based, mouse; settings: 2, 5, 50 and 100 ng/ml; 2000 cells/well; medium with IGF-I 2 ng/ml; 36 h; vs medium-only control
[3] = test system: C2C12 근육 세포; test: C2C12 cell proliferation assay (BrdU incorporation); assay type: cell-based, mouse; settings: 0.1, 1, 10 and 100 ng/ml; 500 cells/well; 24 h stimulation, 5 h BrdU
[4] = test system: mdx 마우스의 근이영양성 근육; test: Tetanic force of dystrophic muscle after intramuscular injection in mdx mice; assay type: in vivo, mouse; settings: i.m. twice weekly for 3 weeks
[5] = test system: 경색된 양 심장; test: Cardioprotection after myocardial infarction in sheep (ejection fraction by echocardiography); assay type: in vivo; settings: intracoronary injection 15 min after infarction, day 6 vs day before procedure
[6] = test system: 래트 기관형적 해마 배양물; test: In vitro neuroprotection against TBH oxidative stress in organotypic hippocampal slices (PI staining); assay type: cell-based, Wistar rat; settings: 100 ng/ml
[7] = test system: 뇌 허혈의 게르빌루스쥐 모델; test: Neuroprotection in gerbil model of brain ischaemia (surviving CA1 neurons); assay type: in vivo, Mongolian gerbil; settings: 25 µg injection, 7 days after ischaemic insult
[8] = test system: 정상 두개안면 (교근) 초대 배양물; test: Myogenic progenitor (desmin-positive) cell proliferation, normal craniofacial muscle primary culture; assay type: cell-based, human; settings: normal craniofacial (masseter); peptide 10 ng/ml alone; untreated 49.8±2.4%
[9] = test system: 정상 하지 (사두근) 초대 배양물; test: Myogenic progenitor (desmin-positive) cell proliferation, normal limb muscle primary culture; assay type: cell-based, human; settings: normal limb (quadriceps); peptide 10 ng/ml alone; untreated 38.4±2.5%
[10] = test system: 선천성 근이영양증 (CMD)에서 유래된 초대 배양물; test: Myogenic progenitor (desmin-positive) cell proliferation, CMD muscle primary culture; assay type: cell-based, human; settings: peptide 10 ng/ml alone, untreated 10.4±1.7%
[11] = test system: ALS 사지; test: Myogenic progenitor (desmin-positive) cell proliferation, ALS muscle primary culture; assay type: cell-based, human; settings: peptide 10 ng/ml alone, untreated 4.8±1.1%
[12] = test system: FSHD 사지; test: Myogenic progenitor (desmin-positive) cell proliferation, FSHD muscle primary culture; assay type: cell-based, human; settings: peptide 10 ng/ml alone, untreated 11.7±1.3%
[13] = test system: 초대 인간 근육 세포 배양물; test: Creatine phosphokinase (CPK) assay of myogenic differentiation / myotube formation; assay type: cell-based, human; settings: peptide alone in differentiation medium, 48 h; IGF-I at 10 ng/ml
[14] = test system: HSMM 세포; test: Human primary cell (HSMM) proliferation assay (BrdU incorporation); assay type: cell-based; settings: 48 h; A5 at doses up to 10 ng/ml (P < 0.1); IGF-I alone at any dose

YQPPSTNKNTKSQRRKGSTFEEHK [펩티드 1, human Ec peptide variant with His instead of Arg at penultimate position; no PEG, no L-D conversion]
biological activity (in words) [1]: 활성을 거의 또는 전혀 나타내지 않았다

GSTFEEHK [DMGF]
induction of C2C12 cell proliferation (Alamar Blue fluorescence) [2]: 세포 증식을 유도하였다

YQPPSTNKNTKSQAAKGSTFEEHK [펩티드 6]
biological activity score (scale 0 to 3) [1]: 0

GSTFEERK [펩티드 A2]
induction of C2C12 cell proliferation (BrdU incorporation) [3]: 세포 증식을 유도하였다

PSTNKNTKSQARKGSTFEEHK [짧은 펩티드 3, Arg14→Ala, three N-terminal amino acids removed]
biological activity score (scale 0 to 3) [1]: 0

YQPPSTNKNTKSQARKGSTFEE [짧은 펩티드 1, Arg14→Ala, two C-terminal amino acids removed]
biological activity score (scale 0 to 3) [1]: 1

TNKNTKSQARKGSTFEEHK [짧은 펩티드 4, Arg14→Ala, five N-terminal amino acids removed]
biological activity score (scale 0 to 3) [1]: 0

YQPPATNKNTKSQRRKGSTFEEHK [펩티드 2]
biological activity score (scale 0 to 3) [1]: 1

GSTFEEHK [펩티드 A8]
induction of C2C12 cell proliferation (BrdU incorporation) [3]: 세포 증식을 유도하였다

YQPPSTNKNTKSQARKGSTF [짧은 펩티드 2, Arg14→Ala, four C-terminal amino acids removed]
biological activity score (scale 0 to 3) [1]: 0

YQPPSTNKNTKSQRRKGATFEEHK [펩티드 4]
biological activity score (scale 0 to 3) [1]: 2

YQPPSTNKNTKAQRRKGSTFEEHK [펩티드 3]
biological activity score (scale 0 to 3) [1]: 3

IGF-I: IGF-I receptor binding domain encoded by exons 3 and 4, about 70 amino acids; from PeproTech or Sigma-Aldrich
increase in tetanic force of dystrophic muscle [4]: ~5 % | effect on ejection fraction and percentage of viable myocardium after MI [5]: 더욱 작은 효과 | protection against TBH-induced cell death ([6]; TBH 3 h, CA1 region, 24 h): 72 % | time over which the neuroprotective effect was marked ([6]; cell death assessed 24 h and 48 h after start): ≤ 24 시간 | surviving CA1 neurons as % of control neuron number, side not stated [7]: 15.8 % | surviving CA1 neurons, side not stated ([7]; n=5): 19.2 ± 7.3 개 | desmin-positive cells as % of total (DAPI-positive) cells [8]: 58.4±4.2 % | desmin-positive cells as % of total (DAPI-positive) cells [9]: 47.1±3.5 % | desmin-positive cells as % of total (DAPI-positive) cells [10]: 13.2±1.7 % | desmin-positive cells as % of total (DAPI-positive) cells [11]: 4.7±1.4 % | desmin-positive cells as % of total (DAPI-positive) cells [12]: 14.1±1.6 % | effect on primary myoblast differentiation and myotube formation (CPK) [13]: 근관 형성을 명백하게 자극한다 | induction of C2C12 cell proliferation (Alamar Blue fluorescence) [2]: 통계학적으로 상이하였다 | effect on HSMM proliferation (BrdU incorporation), used alone [14]: 유의한 효과가 없었다

YQPPSTNKNTKSQARKGSTFEEHK [펩티드 5]
biological activity score (scale 0 to 3) [1]: 2

From patent publication KR20080021588A, “메카노 성장 인자 펩티드 및 이들의 용도” (유씨엘 비즈니스 피엘씨, priority 2005, dated 2006)
